Measurements published in the supplement of paper PMC10307832.

Experiments:
Assay in all cases: relative viability (nuclei count vs DMSO), 5 days (fraction); higher = more cells survive
[1] = compound: COc1cc2c(Oc3ccc4[nH]c(C)cc4c3F)ncnc2cc1OCCCN1CCCC1 [Cediranib] + CS(=O)(=O)CCNCc1ccc(-c2ccc3ncnc(Nc4ccc(OCc5cccc(F)c5)c(Cl)c4)c3c2)o1 [Lapatinib] (partner 2 µM)
Method in brief: (§1)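 Relative viability equals treated-well nuclei counts divided by vehicle-well nuclei counts. Counts came from 4× images of lung cancer cell lines grown in 1536-well plates for 5 days after pin-tool dosing on the day after seeding. Dosing used one drug alone or a fixed anchor-drug dose plus five library-drug doses (not always all listed) in √10 steps, and values are medians of duplicate plates.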

[2] = compound: COc1cc2c(Oc3ccc4[nH]c(C)cc4c3F)ncnc2cc1OCCCN1CCCC1 [Cediranib] + N=C(N)NC(=N)NCCc1ccccc1 [Phenformin] (partner 250 µM)
Method in brief: as §1

[3] = compound: Nc1ncn([C@H]2C[C@H](O)[C@@H](CO)O2)c(=O)n1 [Decitabine] + CC(=O)c1c(C)c2cnc(Nc3ccc(N4CCNCC4)cn3)nc2n(C2CCCC2)c1=O [Palbociclib] (partner 0.5 µM)
Method in brief: as §1

[4] = compound: Nc1ncn([C@H]2C[C@H](O)[C@@H](CO)O2)c(=O)n1 [Decitabine] + NC(=O)Nc1cc(-c2cccc(F)c2)sc1C(=O)N[C@H]1CCCNC1 [AZD7762] (partner 0.2 µM)
Method in brief: as §1

Cell Line	relative viability ([1]; first compound 0.04 µM)	relative viability ([1]; first compound 0.4 µM)	relative viability ([1]; first compound 1.265 µM)	relative viability ([1]; first compound 4 µM)	relative viability ([2]; first compound 0.04 µM)	relative viability ([2]; first compound 0.4 µM)	relative viability ([2]; first compound 1.265 µM)	relative viability ([2]; first compound 4 µM)	relative viability ([3]; first compound 0.04 µM)	relative viability ([3]; first compound 0.1265 µM)	relative viability ([3]; first compound 0.4 µM)	relative viability ([3]; first compound 1.265 µM)	relative viability ([3]; first compound 4 µM)	relative viability ([4]; first compound 0.04 µM)	relative viability ([4]; first compound 0.1265 µM)	relative viability ([4]; first compound 0.4 µM)	relative viability ([4]; first compound 1.265 µM)	relative viability ([4]; first compound 4 µM)	relative viability ([1]; first compound 0.1265 µM)	relative viability ([2]; first compound 0.1265 µM)
NCI-H23	0.977	1.21	0.881	1.38	0.756	0.724	0.683	0.867	0.413	0.372	0.295	0.28	0.271	0.196	0.271	0.154	0.131	0.162		
NCI-H647	1.46	1.08	1.02	1.19	0.513	0.47	0.605	0.441	0.269	0.489	0.236	0.123	0.117	0.345	0.438	0.247	0.139	0.151	1.19	0.504
201T	1.08	1.02	1.01	0.996	0.454	0.422	0.483	0.41	0.373	0.383	0.439		0.379	0.463	0.514	0.38		0.353	0.897	0.587
NCI-H1734	0.913	1.07	0.826	1.21	0.403	0.383	0.388	0.433	0.331	0.338	0.32	0.284	0.236	0.417	0.51	0.501	0.209	0.209	0.989	0.458
